We go through twelve molecules from US20230021448A1, “COMPOUNDS AND COMPOSITIONS FOR TREATING CONDITIONS ASSOCIATED WITH STING ACTIVITY” (IFM Due, Inc., priority 2019, published 2023).

SMILES strings stand for the structures.

The target in this assay is T1, STING (Homo sapiens, UniProt Q86WV6, G230A/H232R/R293Q/R71H).
T1 construct: host or cells: THP1-Dual KO-IFNAR2 cells
T1 sequence (Q86WV6 whole entry R71H/G230A/H232R/R293Q): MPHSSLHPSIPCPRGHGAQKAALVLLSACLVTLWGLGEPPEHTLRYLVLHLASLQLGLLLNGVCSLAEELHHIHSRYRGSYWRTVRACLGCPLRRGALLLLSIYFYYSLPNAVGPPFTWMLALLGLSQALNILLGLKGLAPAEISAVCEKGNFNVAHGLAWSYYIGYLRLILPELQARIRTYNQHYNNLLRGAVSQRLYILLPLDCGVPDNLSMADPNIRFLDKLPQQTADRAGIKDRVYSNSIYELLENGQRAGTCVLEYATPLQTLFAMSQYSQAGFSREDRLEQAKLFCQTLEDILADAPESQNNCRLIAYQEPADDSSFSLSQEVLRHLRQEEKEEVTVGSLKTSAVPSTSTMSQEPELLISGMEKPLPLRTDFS
The assay is described as follows: STING reporter assay: luciferase reporter activity in THP1-Dual KO-IFNAR2 cells stimulated with 2'3'cGAMP. It is filed as cell-based. The settings on record: 2′3′cGAMP 15 μM final, 24h, read-out: hSTING: EC50. Put shortly:
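THP1-Dual KO-IFNAR2 cells (2×10E6 cells/mL) incubated with compounds at 0.0017-100 μM final plus Lipofectamine-transfected 2′3′cGAMP (15 μM final), 24 h at 37 °C, 5% CO2. Luciferase in supernatant read by QUANTI-Luc luminescence; EC50 derived.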
(In general: In a reporter assay the amount or activity of a reporter protein is the signal.)
For orientation: EC50 means the concentration that produces a half-maximal response. Turning to `O=C(Nc1c[nH]c2cc(F)c(F)cc12)C(=O)NC1CCC(Oc2ccc(C(F)(F)F)cc2)CC1` (stereo not drawn) [Compound 315], the EC50 lay within 40 to 200 nM.

`O=C(NCc1ccc(C(F)(F)F)c(Cl)c1)C(=O)Nc1c[nH]c2ccc(Br)cc12` [Compound 133]: the EC50 was 40 to 200 nM.

As to `O=C(Nc1ccc2c(cnn2Cc2cccc(F)c2)c1)C(=O)Nc1c[nH]c2cc(F)c(F)cc12` [Compound 262, N-(5,6-difluoro-1H-indol-3-yl)-N′-{1-[(3-fluorophenyl)methyl]-1H-indazol-5-yl}ethanediamide], the EC50 fell in the range of 200 to 1000 nM.

`O=C(Nc1ccc(C(F)(F)F)cc1)C(=O)Nc1c[nH]c2cc(F)ccc12` [Compound 172]: the half-maximal effective concentration (EC50) was 200 to 1000 nM.

In the case of `O=C(Nc1c[nH]c2cc(F)c(F)cc12)C(=O)N[C@H]1CC[C@H](NCC(F)(F)F)CC1` [Compound 211], the EC50 fell in the range of 1000 to 5000 nM.

As for `O=C(Nc1c[nH]c2cc(F)c(F)cc12)C(=O)NC1CCCC2(CCCCC2)C1` (stereo not drawn) [Compound 281], the EC50 lay within 200 to 1000 nM.

Consider `O=C(Nc1ccc(C(F)(F)F)cc1)C(=O)Nc1c[nH]c2cc(F)c(F)cc12` [Compound 115, N1-(5,6-difluoro-1H-indol-3-yl)-N2-(4-(trifluoromethyl)phenyl) oxalamide], for which the EC50 lay within 40 to 200 nM.

`CC(C)n1cc(-c2ccc3[nH]cc(NC(=O)C(=O)Nc4ccc(C(F)(F)F)cc4)c3c2)cn1` [Compound 346]: the EC50 was in the range of 200 to 1000 nM.

Take `O=C(Nc1c[nH]c2cc(F)c(F)cc12)C(=O)NC1CCN(c2cccnc2)C1` (stereo not drawn) [Compound 332]: the 50% effective concentration (EC50) fell in the range of 1000 to 5000 nM.

As for `CC(NC(=O)C(=O)Nc1c[nH]c2cc(F)c(F)cc12)c1ccc(C(F)(F)F)cc1` (stereo not drawn) [Compound 156, N1-(5,6-difluoro-1H-indol-3-yl)-N2-(1-(4-(trifluoromethyl)phenyl)ethyl) oxalamide], the EC50 lay in the range of 200 to 1000 nM.

As to `Cc1ccccc1N1C2CCC1CC(NC(=O)C(=O)Nc1c[nH]c3cc(F)c(F)cc13)C2` (stereo not drawn) [Compound 254], the EC50 was 200 to 1000 nM.

As to `O=C(Nc1ccc(C(F)(F)F)cc1)C(=O)Nc1c[nH]c2ccc(Br)cc12` [Compound 302], the concentration for a half-maximal effect (EC50) lay within 40 to 200 nM.
